Laboratory results: publication PMC9276577, “SIRT1 pharmacological activation rescues vascular dysfunction and prevents thrombosis in MTHFR deficiency” (Cellular and Molecular Life Sciences: CMLS, 2022)

How the values were obtained:
[1] = target: T1, SIRT1 (Homo sapiens, UniProt Q96EB6); test: NMase-coupled fluorescence deacetylase assay (activation, AC50) on purified SIRT1; binding supported by tyrosine fluorescence quenching and CETSA in MCF7 cells; type: biochemical; design: SIRT1-GST purified from E. coli BL21 (full-length SIRT1 after thrombin cleavage for fluorescence quenching); details: read-out: EC50 (the source's name)
T1 sequence (Q96EB6 2-747): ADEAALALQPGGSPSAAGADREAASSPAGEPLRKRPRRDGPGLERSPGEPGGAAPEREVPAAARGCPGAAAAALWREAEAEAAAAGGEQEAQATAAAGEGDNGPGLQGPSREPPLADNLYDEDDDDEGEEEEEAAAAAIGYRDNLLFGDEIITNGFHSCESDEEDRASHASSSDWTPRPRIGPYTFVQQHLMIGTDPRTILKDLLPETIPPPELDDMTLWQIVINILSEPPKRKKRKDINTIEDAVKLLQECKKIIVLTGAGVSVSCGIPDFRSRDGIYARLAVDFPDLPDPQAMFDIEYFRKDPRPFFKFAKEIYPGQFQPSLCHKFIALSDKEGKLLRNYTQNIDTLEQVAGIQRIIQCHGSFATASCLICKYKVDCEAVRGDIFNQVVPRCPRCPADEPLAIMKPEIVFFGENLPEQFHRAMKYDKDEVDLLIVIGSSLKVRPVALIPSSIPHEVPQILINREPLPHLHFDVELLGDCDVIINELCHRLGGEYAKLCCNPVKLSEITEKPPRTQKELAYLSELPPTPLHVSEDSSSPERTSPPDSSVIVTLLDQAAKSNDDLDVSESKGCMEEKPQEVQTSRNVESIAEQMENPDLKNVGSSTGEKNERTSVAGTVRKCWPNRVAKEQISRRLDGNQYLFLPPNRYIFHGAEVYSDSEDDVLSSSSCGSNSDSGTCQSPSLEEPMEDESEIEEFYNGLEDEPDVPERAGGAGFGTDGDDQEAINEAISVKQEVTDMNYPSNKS

[2] = target: T1, SIRT1; test: CETSA in MCF7 cells (Tm raised from […] °C to […] °C); type: cell-based; design: endogenous SIRT1 in MCF7 cells

ISIDE11
AC50 [1]: 20.11 ± 0.15 µM

Oc1ccc(/C=C/c2cc(O)cc(O)c2)cc1 [RSV, resveratrol]
CETSA in MCF7 cells (Tm raised from 46.5 °C to 51.4 °C) [2]: 51.4 °C
